Test results reported in ChEMBL document CHEMBL1201862, “PubChem BioAssay data set” (2004).
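Growth conditions: 96-well plates. Treatment: test compound, 48 hours, 5 concentrations. Analysis: linear interpolation between bracketing concentrations; unreached endpoints set to highest concentration. GI50 is the concentration that inhibits growth by half.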 The source made the active and inactive calls. No stated cut-off is given here; in the data, active = GI50 up to about 1.1 µM and inactive = higher.

Assays:
Experiment in all cases: growth of human tumour cells (NCI), 48 h
[1] = test system: NCI/ADR-RES
[2] = test system: HL-60
[3] = test system: SR
[4] = test system: T47D
[5] = test system: IGROV-1
[6] = test system: SW-620
[7] = test system: LOX IMVI
[8] = test system: SF-268
[9] = test system: HOP-62
[10] = test system: MDA-MB-435
[11] = test system: BT-549
[12] = test system: U-251
[13] = test system: M14
[14] = test system: HCT-15
[15] = test system: CCRF-CEM
[16] = test system: OVCAR-5
[17] = test system: OVCAR-3
[18] = test system: EKVX
[19] = test system: CAKI-1
[20] = test system: UO-31

Structure (SMILES)	GI50 [1]	GI50 [2]	GI50 [3]	GI50 [4]	GI50 [5]	GI50 [6]	GI50 [7]	GI50 [8]	GI50 [9]	GI50 [10]	GI50 [11]	GI50 [12]	GI50 [13]	GI50 [14] [µM]	GI50 [15]	GI50 [16]	GI50 [17]	GI50 [18]	GI50 [19]	GI50 [20]
CC(C)(C)OC(=O)N1C(=O)C2CCCC21 (stereo unspecified)	> 100 µM (inactive)	> 100 µM (inactive)	> 100 µM (inactive)	> 100 µM (inactive)	> 100 µM (inactive)	> 100 µM (inactive)	> 100 µM (inactive)	> 100 µM (inactive)	> 100 µM (inactive)	> 100 µM (inactive)	> 100 µM (inactive)	> 100 µM (inactive)	> 100 µM (inactive)	> 100	> 100 µM (inactive)	> 100 µM (inactive)	> 100 µM (inactive)	–	–	–
COc1cc(Oc2nc3cc(F)c(F)cc3nc2-c2ccccc2)cc(OC)c1OC	> 100 µM (inactive)	> 100 µM (inactive)	78.9 µM (inactive)	> 100 µM (inactive)	> 100 µM (inactive)	> 100 µM (inactive)	81.8 µM (inactive)	59 µM (inactive)	82 µM (inactive)	61.9 µM (inactive)	> 100 µM (inactive)	40.3 µM (inactive)	45.3 µM (inactive)	51.9	> 100 µM (inactive)	> 100 µM (inactive)	> 100 µM (inactive)	97.7 µM (inactive)	46 µM (inactive)	73.6 µM (inactive)
CN(C)CCN1C(=O)CC[C@@]2(C)C1=CC[C@@H]1[C@@H]2CC[C@@]2(C)[C@H]1CC[C@]2(C)O	> 100 µM (inactive)	> 100 µM (inactive)	> 100 µM (inactive)	> 100 µM (inactive)	> 100 µM (inactive)	> 100 µM (inactive)	> 100 µM (inactive)	> 100 µM (inactive)	> 100 µM (inactive)	> 100 µM (inactive)	> 100 µM (inactive)	> 100 µM (inactive)	> 100 µM (inactive)	> 100	> 100 µM (inactive)	> 100 µM (inactive)	> 100 µM (inactive)	> 100 µM (inactive)	> 100 µM (inactive)	> 100 µM (inactive)
CN1CCN(C(=O)c2cn(Cc3cncn3Cc3ccc4c(c3)OCO4)cc2-c2cccc3ccccc23)CC1	28.2 µM (inactive)	0.337 µM (active)	0.0237 µM (active)	15.7 µM (inactive)	2.85 µM (inactive)	13.9 µM (inactive)	4.76 µM (inactive)	18.5 µM (inactive)	26.9 µM (inactive)	0.198 µM (active)	9.75 µM (inactive)	7.73 µM (inactive)	0.273 µM (active)	17	4.71 µM (inactive)	24.8 µM (inactive)	25.5 µM (inactive)	15.3 µM (inactive)	20.5 µM (inactive)	7.66 µM (inactive)
Clc1ccc(-c2nnc(-c3cccc4ccccc34)o2)cc1Cl	> 100 µM (inactive)	1.03 µM (active)	40.3 µM (inactive)	> 100 µM (inactive)	4.93 µM (inactive)	> 100 µM (inactive)	> 100 µM (inactive)	> 100 µM (inactive)	> 100 µM (inactive)	> 100 µM (inactive)	> 100 µM (inactive)	> 100 µM (inactive)	> 100 µM (inactive)	> 100	> 100 µM (inactive)	> 100 µM (inactive)	> 100 µM (inactive)	> 100 µM (inactive)	> 100 µM (inactive)	> 100 µM (inactive)
CCCCCCCCC/C=C/C=C/C(=O)NCC(=O)NC1C(O)C(O)C(Nc2ncnc3[nH]cnc23)OC1C(O)CO (stereo unspecified)	< 0.01 µM (active)	0.00159 µM (active)	0.0211 µM (active)	0.169 µM (active)	4.88e-05 µM (active)	0.00156 µM (active)	0.00234 µM (active)	0.0143 µM (active)	0.00412 µM (active)	0.0255 µM (active)	0.023 µM (active)	0.00149 µM (active)	0.0046 µM (active)	0.362	2.39 µM (inactive)	0.00174 µM (active)	0.000601 µM (active)	0.126 µM (active)	0.00692 µM (active)	0.00196 µM (active)
COC(=O)/C=C(\S/C=C(/c1ccccc1)N1CCn2c(C(=O)c3ccccc3)c(C(=O)OC)c(C(=O)OC)c21)C(=O)OC	3.52 µM (inactive)	0.531 µM (active)	2.61 µM (inactive)	2.92 µM (inactive)	> 10 µM (inactive)	0.565 µM (active)	1.47 µM (inactive)	–	2.69 µM (inactive)	3.97 µM (inactive)	3.83 µM (inactive)	3.93 µM (inactive)	2.4 µM (inactive)	2.6	0.733 µM (active)	9.95 µM (inactive)	1.51 µM (inactive)	> 10 µM (inactive)	4.04 µM (inactive)	–
CC(C)(C)OC(=O)NCC(C#N)CNC(=O)OC(C)(C)C	> 100 µM (inactive)	> 100 µM (inactive)	> 100 µM (inactive)	> 100 µM (inactive)	> 100 µM (inactive)	> 100 µM (inactive)	> 100 µM (inactive)	> 100 µM (inactive)	> 100 µM (inactive)	> 100 µM (inactive)	> 100 µM (inactive)	> 100 µM (inactive)	> 100 µM (inactive)	> 100	> 100 µM (inactive)	> 100 µM (inactive)	> 100 µM (inactive)	> 100 µM (inactive)	> 10 µM (inactive)	> 100 µM (inactive)
CCCCCCCCOc1ccc(/C=C/C2=[N+](CCO)CCO2)cc1	12.6 µM (inactive)	2.62 µM (inactive)	2.19 µM (inactive)	3.35 µM (inactive)	3.83 µM (inactive)	2.43 µM (inactive)	–	5.27 µM (inactive)	8.63 µM (inactive)	3.52 µM (inactive)	3.44 µM (inactive)	2.86 µM (inactive)	3.8 µM (inactive)	12.1	3.08 µM (inactive)	9.42 µM (inactive)	3.15 µM (inactive)	3.94 µM (inactive)	7.05 µM (inactive)	12.3 µM (inactive)
CC1C(=O)OC2CC[N+]3([O-])CC=C(COC(=O)C(C)(O)C1(C)O)C23 (stereo unspecified)	> 100 µM (inactive)	> 100 µM (inactive)	95.7 µM (inactive)	> 100 µM (inactive)	> 100 µM (inactive)	> 100 µM (inactive)	> 100 µM (inactive)	> 100 µM (inactive)	> 100 µM (inactive)	> 100 µM (inactive)	> 100 µM (inactive)	> 100 µM (inactive)	> 100 µM (inactive)	> 100	> 100 µM (inactive)	> 100 µM (inactive)	> 100 µM (inactive)	> 100 µM (inactive)	> 100 µM (inactive)	–
CN(/N=C/c1cccs1)c1ccc(Cl)cc1[N+](=O)[O-]	18.9 µM (inactive)	6.75 µM (inactive)	5.71 µM (inactive)	41.6 µM (inactive)	> 100 µM (inactive)	12.3 µM (inactive)	–	83.4 µM (inactive)	40.9 µM (inactive)	5.57 µM (inactive)	40.6 µM (inactive)	13.7 µM (inactive)	34.2 µM (inactive)	10.6	19.1 µM (inactive)	–	39.8 µM (inactive)	32.7 µM (inactive)	63.1 µM (inactive)	36.9 µM (inactive)
COc1cc(Oc2c(C)c(Cl)c(OC)c(Cl)c2OC)c2c(c1Cl)COC2=O	17.1 µM (inactive)	7.78 µM (inactive)	3.85 µM (inactive)	9.73 µM (inactive)	17.6 µM (inactive)	52 µM (inactive)	17 µM (inactive)	21.8 µM (inactive)	–	31.3 µM (inactive)	43.6 µM (inactive)	29.8 µM (inactive)	27.7 µM (inactive)	13.9	45.1 µM (inactive)	47.1 µM (inactive)	–	22.3 µM (inactive)	10.4 µM (inactive)	10.8 µM (inactive)
CCCCCCCCCCCCOc1ccc(/C=C/C2=[N+](CCCl)CCO2)cc1	46.1 µM (inactive)	12.8 µM (inactive)	19.6 µM (inactive)	76.4 µM (inactive)	25.4 µM (inactive)	> 100 µM (inactive)	17.7 µM (inactive)	–	> 100 µM (inactive)	94.2 µM (inactive)	> 100 µM (inactive)	24.3 µM (inactive)	> 100 µM (inactive)	31.7	22.8 µM (inactive)	> 100 µM (inactive)	19.4 µM (inactive)	97.1 µM (inactive)	> 100 µM (inactive)	47.3 µM (inactive)
COc1cccc(OC)c1C1ON=C(c2ccccc2)N1C12CC3CC(CC(C3)C1)C2 (stereo unspecified)	> 100 µM (inactive)	1.87 µM (inactive)	5.92 µM (inactive)	8.3 µM (inactive)	> 100 µM (inactive)	> 100 µM (inactive)	> 100 µM (inactive)	> 100 µM (inactive)	80.9 µM (inactive)	> 100 µM (inactive)	> 100 µM (inactive)	30.1 µM (inactive)	78 µM (inactive)	> 100	–	46.2 µM (inactive)	> 100 µM (inactive)	> 100 µM (inactive)	> 100 µM (inactive)	> 100 µM (inactive)
O=c1onc2n1-c1ccc(Cl)cc1C(=S)N1CSCC21 (stereo unspecified)	17.3 µM (inactive)	–	15.9 µM (inactive)	35.7 µM (inactive)	26.5 µM (inactive)	20.7 µM (inactive)	31.5 µM (inactive)	25.8 µM (inactive)	63.1 µM (inactive)	9.46 µM (inactive)	20.5 µM (inactive)	18.2 µM (inactive)	11.1 µM (inactive)	26.6	25.9 µM (inactive)	31.3 µM (inactive)	38.8 µM (inactive)	29.6 µM (inactive)	64.1 µM (inactive)	59 µM (inactive)
